Measured values reported in the kinase profiling compilation of Christmann-Franck et al. (2016).
Values joined by “and” are separate entries in the source; they are usually repeats but may differ in a detail not shown here. Equal values may be shown once.

Key:
Test in all cases: KINOMEscan competition binding
Conditions in all cases: compound 10.0 µM
MAPK10 (human) = MAPK10 (human) (UniProt P53779)
CSNK2A2 (human) = CSNK2A2 (human) (UniProt P19784)
STK32C (human) = STK32C (human) (UniProt Q86UX6)
Chain of STK32C (human) (Q86UX6 whole entry, looked up): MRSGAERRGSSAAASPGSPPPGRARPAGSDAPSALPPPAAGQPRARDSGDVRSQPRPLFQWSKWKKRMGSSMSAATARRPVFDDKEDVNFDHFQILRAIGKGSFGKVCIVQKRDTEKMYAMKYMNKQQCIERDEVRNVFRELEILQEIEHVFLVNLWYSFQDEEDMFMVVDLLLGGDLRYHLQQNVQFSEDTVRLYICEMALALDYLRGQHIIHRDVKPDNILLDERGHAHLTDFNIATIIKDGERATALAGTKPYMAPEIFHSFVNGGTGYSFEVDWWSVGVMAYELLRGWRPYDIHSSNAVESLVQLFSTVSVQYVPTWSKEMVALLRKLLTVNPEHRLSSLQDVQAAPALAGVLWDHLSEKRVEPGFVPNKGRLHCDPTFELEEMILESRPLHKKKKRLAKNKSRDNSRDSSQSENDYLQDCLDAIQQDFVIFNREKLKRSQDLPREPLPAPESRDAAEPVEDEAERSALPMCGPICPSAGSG

MAP2K5 (human) = MAP2K5 (human) (UniProt Q13163)
Chain of MAP2K5 (human) (Q13163 whole entry, looked up): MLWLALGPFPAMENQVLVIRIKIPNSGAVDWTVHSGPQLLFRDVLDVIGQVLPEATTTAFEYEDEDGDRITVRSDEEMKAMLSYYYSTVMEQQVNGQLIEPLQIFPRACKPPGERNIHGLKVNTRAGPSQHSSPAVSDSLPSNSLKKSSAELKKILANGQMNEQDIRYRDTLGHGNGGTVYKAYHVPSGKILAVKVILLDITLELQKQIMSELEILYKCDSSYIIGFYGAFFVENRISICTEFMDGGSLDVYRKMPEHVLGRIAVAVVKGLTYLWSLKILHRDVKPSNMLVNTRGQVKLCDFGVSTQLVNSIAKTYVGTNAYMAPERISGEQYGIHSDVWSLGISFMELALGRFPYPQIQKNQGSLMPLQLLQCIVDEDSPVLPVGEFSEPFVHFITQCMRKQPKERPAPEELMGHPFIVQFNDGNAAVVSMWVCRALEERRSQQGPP

RIOK1 (human) = RIOK1 (human) (UniProt Q9BRS2)
AURKC (human) = AURKC (human) (UniProt Q9UQB9)
PDGFRA (human) = PDGFRA (human) (UniProt P16234)
MARK4 (human) = MARK4 (human) (UniProt Q96L34)
GSK3B (human) = GSK3B (human) (UniProt P49841)
STK35 (human) = STK35 (human) (UniProt Q8TDR2)
CaMK1 (human) = CaMK1 (human) (UniProt Q14012)
CSF1R (human) = CSF1R (human) (UniProt P07333)
PRKAA1 (human) = PRKAA1 (human) (UniProt Q13131)
Chain of PRKAA1 (human) (Q13131 whole entry, looked up): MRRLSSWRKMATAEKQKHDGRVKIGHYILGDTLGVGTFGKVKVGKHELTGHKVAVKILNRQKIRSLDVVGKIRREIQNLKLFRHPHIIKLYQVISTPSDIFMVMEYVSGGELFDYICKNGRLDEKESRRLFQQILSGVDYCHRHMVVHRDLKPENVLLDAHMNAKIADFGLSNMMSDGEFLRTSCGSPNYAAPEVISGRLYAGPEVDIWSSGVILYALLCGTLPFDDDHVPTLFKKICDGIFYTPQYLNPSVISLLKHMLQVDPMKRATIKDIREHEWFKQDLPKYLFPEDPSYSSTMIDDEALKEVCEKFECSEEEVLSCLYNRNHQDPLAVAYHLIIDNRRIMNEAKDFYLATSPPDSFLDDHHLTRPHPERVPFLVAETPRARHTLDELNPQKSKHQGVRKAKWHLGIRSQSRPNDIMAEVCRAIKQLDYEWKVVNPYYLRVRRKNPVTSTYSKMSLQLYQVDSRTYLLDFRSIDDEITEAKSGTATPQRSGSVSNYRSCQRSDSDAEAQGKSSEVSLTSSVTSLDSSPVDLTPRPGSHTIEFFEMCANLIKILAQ

RPS6KA4 KD2 (human) = RPS6KA4 KD2 (human) (UniProt O75676)
HUNK (human) = HUNK (human) (UniProt P57058)
[1] = system: FLT3 (human), P36888 [D835Y]
[2] = system: EGFR (human), P00533 [L858R]
ANKK1 (human) = ANKK1 (human) (UniProt Q8NFD2)
SNRK (human) = SNRK (human) (UniProt Q9NRH2)
AURKA (human) = AURKA (human) (UniProt O14965)
STK16 (human) = STK16 (human) (UniProt O75716)
STK33 (human) = STK33 (human) (UniProt Q9BYT3)
Chain of STK33 (human) (Q9BYT3 whole entry, looked up): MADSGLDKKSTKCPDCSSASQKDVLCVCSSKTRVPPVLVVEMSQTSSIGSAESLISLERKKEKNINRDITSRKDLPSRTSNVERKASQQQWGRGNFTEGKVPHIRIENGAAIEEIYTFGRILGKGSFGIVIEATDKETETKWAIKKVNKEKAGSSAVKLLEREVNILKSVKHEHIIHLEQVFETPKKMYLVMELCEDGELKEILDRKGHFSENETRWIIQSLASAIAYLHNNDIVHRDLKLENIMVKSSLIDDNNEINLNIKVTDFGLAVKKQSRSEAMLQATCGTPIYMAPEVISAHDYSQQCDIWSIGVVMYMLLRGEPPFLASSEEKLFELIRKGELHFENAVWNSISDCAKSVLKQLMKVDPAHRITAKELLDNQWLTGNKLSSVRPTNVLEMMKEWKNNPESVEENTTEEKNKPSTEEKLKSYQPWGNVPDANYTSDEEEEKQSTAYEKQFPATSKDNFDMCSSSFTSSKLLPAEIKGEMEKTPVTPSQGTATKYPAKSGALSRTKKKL

AURKB (human) = AURKB (human) (UniProt Q96GD4)
EPHA5 (human) = EPHA5 (human) (UniProt P54756)
SBK1 (human) = SBK1 (human) (UniProt Q52WX2)
SRPK1 (human) = SRPK1 (human) (UniProt Q96SB4)
MINK1 (human) = MINK1 (human) (UniProt Q8N4C8)
MAP3K12 (human) = MAP3K12 (human) (UniProt Q12852)
MAPK11 (human) = MAPK11 (human) (UniProt Q15759)
HCK (human) = HCK (human) (UniProt P08631)
[3] = target: JAK2 JH1 catalytic (human) (UniProt O60674)
Chain of JAK2 JH1 catalytic (human) (O60674 whole entry, looked up): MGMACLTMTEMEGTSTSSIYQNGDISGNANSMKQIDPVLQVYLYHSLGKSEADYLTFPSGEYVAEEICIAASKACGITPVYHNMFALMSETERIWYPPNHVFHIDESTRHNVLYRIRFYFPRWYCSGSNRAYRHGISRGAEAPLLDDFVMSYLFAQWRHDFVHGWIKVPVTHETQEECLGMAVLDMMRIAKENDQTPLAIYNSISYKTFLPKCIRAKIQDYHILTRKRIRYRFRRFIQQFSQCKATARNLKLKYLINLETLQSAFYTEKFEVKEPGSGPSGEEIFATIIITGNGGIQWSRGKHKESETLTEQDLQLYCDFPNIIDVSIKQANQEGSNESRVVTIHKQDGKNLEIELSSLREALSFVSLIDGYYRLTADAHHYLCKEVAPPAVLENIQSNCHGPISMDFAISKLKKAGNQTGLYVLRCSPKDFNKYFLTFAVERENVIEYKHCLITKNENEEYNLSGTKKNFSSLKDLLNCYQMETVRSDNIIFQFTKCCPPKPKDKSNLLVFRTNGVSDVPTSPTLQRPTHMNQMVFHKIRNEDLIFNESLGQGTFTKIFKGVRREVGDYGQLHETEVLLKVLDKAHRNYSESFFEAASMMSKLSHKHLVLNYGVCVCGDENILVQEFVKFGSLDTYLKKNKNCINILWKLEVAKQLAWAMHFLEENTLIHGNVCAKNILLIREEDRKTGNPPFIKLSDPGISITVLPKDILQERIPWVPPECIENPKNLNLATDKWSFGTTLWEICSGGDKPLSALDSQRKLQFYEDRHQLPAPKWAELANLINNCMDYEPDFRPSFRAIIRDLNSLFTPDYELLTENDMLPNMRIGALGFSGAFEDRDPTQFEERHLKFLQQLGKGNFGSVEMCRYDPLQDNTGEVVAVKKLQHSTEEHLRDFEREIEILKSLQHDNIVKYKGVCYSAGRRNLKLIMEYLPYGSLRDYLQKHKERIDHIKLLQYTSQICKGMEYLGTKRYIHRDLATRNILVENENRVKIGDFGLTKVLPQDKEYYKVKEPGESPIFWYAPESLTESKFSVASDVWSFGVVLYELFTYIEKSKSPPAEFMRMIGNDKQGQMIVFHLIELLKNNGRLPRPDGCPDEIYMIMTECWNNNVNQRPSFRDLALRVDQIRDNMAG

RPS6KA1 KD2 (human) = RPS6KA1 KD2 (human) (UniProt Q15418)
PRKD2 (human) = PRKD2 (human) (UniProt Q9BZL6)
TESK1 (human) = TESK1 (human) (UniProt Q15569)
CDK18 (human) = CDK18 (human) (UniProt Q07002)
PKN2 (human) = PKN2 (human) (UniProt Q16513)
MAP3K15 (human) = MAP3K15 (human) (UniProt Q6ZN16)
NEK1 (human) = NEK1 (human) (UniProt Q96PY6)
MKNK2 (human) = MKNK2 (human) (UniProt Q9HBH9)
Chain of MKNK2 (human) (Q9HBH9 whole entry, looked up): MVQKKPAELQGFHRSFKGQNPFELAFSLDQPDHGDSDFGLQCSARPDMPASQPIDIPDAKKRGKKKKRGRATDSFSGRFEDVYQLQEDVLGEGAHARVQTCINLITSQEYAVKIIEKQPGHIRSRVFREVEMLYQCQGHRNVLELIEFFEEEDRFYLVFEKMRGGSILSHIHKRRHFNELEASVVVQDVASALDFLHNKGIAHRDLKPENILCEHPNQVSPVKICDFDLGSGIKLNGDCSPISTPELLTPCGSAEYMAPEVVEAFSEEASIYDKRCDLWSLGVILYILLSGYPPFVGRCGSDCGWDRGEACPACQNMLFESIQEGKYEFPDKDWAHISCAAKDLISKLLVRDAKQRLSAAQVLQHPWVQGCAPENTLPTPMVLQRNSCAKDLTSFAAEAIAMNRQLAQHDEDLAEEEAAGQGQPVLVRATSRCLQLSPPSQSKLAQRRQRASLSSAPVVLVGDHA

AAK1 (human) = AAK1 (human) (UniProt Q2M2I8)
Chain of AAK1 (human) (Q2M2I8 whole entry, looked up): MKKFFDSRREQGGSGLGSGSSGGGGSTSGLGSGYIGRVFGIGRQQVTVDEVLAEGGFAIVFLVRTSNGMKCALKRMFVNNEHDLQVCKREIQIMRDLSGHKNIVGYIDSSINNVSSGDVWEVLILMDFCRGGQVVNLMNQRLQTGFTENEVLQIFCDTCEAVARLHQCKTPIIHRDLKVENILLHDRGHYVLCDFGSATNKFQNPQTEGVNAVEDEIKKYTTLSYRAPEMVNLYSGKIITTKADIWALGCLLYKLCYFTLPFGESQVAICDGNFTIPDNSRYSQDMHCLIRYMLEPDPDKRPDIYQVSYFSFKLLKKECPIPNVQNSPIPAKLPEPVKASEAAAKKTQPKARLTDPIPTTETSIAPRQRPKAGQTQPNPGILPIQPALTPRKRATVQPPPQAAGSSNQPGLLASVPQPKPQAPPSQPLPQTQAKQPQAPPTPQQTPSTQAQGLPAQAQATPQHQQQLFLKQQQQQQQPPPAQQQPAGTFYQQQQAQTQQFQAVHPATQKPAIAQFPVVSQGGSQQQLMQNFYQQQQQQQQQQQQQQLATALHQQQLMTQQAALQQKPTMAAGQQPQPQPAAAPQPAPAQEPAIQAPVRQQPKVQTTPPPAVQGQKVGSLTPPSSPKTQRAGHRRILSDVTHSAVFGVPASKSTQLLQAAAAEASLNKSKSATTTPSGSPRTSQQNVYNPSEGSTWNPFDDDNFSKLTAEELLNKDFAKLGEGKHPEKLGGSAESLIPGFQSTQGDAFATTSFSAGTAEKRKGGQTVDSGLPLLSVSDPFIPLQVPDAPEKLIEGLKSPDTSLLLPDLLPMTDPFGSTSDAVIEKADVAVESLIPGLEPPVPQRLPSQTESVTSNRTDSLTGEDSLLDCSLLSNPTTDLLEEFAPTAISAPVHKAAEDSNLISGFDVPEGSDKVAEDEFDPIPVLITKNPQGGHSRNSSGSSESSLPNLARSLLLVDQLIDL

Chain of MAPK10 (human) (P53779 whole entry, looked up): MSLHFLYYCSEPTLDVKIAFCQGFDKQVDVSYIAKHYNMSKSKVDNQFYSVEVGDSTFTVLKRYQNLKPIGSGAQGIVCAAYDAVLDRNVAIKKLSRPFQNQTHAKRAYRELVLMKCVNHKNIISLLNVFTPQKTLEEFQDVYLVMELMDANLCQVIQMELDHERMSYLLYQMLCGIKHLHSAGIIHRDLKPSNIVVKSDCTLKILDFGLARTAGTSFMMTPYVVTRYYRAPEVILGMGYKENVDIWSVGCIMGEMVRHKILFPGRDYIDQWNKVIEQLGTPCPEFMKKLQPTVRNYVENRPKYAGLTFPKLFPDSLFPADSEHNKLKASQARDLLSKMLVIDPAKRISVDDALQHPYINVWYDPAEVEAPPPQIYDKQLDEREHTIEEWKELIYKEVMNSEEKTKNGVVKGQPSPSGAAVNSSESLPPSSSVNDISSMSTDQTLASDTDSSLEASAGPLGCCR

Row | SMILES | kinase still bound, per cent of control (MAPK10 (human)) [%] | kinase still bound, per cent of control (CSNK2A2 (human)) [%] | kinase still bound, per cent of control (STK32C (human)) [%] | kinase still bound, per cent of control (MAP2K5 (human)) [%] | kinase still bound, per cent of control (RIOK1 (human)) [%] | kinase still bound, per cent of control (AURKC (human)) [%] | kinase still bound, per cent of control (PDGFRA (human)) [%] | kinase still bound, per cent of control (MARK4 (human)) [%] | kinase still bound, per cent of control (GSK3B (human)) [%] | kinase still bound, per cent of control (STK35 (human)) [%] | kinase still bound, per cent of control (CaMK1 (human)) [%] | kinase still bound, per cent of control (CSF1R (human)) | kinase still bound, per cent of control (PRKAA1 (human)) [%] | kinase still bound, per cent of control (RPS6KA4 KD2 (human)) [%] | kinase still bound, per cent of control (HUNK (human)) [%] | kinase still bound, per cent of control (ANKK1 (human)) [%] | kinase still bound, per cent of control (SNRK (human)) [%] | kinase still bound, per cent of control (AURKA (human)) [%] | kinase still bound, per cent of control (STK16 (human)) [%] | kinase still bound, per cent of control (STK33 (human)) [%] | also measured
1 | O=c1[nH]c2ccccc2n1C1CCN(Cc2ccc(-c3nc4cc5[nH]cnc5cc4nc3-c3ccccc3)cc2)CC1 | 71 | 92 | 87 | 72 | 76 | 88 | 83 | 99 | 89 | 100 | 87 | 99% and 76% | 72 | 82 | 72 | 73 | 91 | 68 | 92 | 100 | kinase still bound, per cent of control [1]: 51%; kinase still bound, per cent of control [2]: 53%; kinase still bound, per cent of control (AURKB (human)): 91%; kinase still bound, per cent of control (EPHA5 (human)): 100%; kinase still bound, per cent of control (SBK1 (human)): 92%; kinase still bound, per cent of control (SRPK1 (human)): 99%; kinase still bound, per cent of control (MINK1 (human)): 88%; kinase still bound, per cent of control (MAP3K12 (human)): 100%; kinase still bound, per cent of control (MAPK11 (human)): 95%; kinase still bound, per cent of control (HCK (human)): 90%; kinase still bound, per cent of control [3]: 67%; kinase still bound, per cent of control (RPS6KA1 KD2 (human)): 100%; kinase still bound, per cent of control (PRKD2 (human)): 95%; kinase still bound, per cent of control (TESK1 (human)): 74%; kinase still bound, per cent of control (CDK18 (human)): 97%; kinase still bound, per cent of control (PKN2 (human)): 92%; kinase still bound, per cent of control (MAP3K15 (human)): 100%; kinase still bound, per cent of control (NEK1 (human)): 100%; kinase still bound, per cent of control (MKNK2 (human)): 81%; kinase still bound, per cent of control (AAK1 (human)): 100%
2 | C=CC(=O)Nc1ccc(C(=O)c2sc(Nc3ccc(N4CCN(C)CC4)cc3OC)nc2N)cc1 | 6.4 | 37 | 84 | 100 | 37 | 68 | 100 | 85 | 100 | 94 | 8.2 | 58% | 100 | 0.2 | 33 | 100 | 0.2 | 93 | 50 | 39 | kinase still bound, per cent of control [1]: 23%; kinase still bound, per cent of control [2]: 39%; kinase still bound, per cent of control (AURKB (human)): 62%; kinase still bound, per cent of control (EPHA5 (human)): 89%; kinase still bound, per cent of control (SBK1 (human)): 85%; kinase still bound, per cent of control (SRPK1 (human)): 71%; kinase still bound, per cent of control (MINK1 (human)): 3.5%; kinase still bound, per cent of control (MAP3K12 (human)): 79%; kinase still bound, per cent of control (MAPK11 (human)): 4.1%; kinase still bound, per cent of control (HCK (human)): 100%; kinase still bound, per cent of control [3]: 74%; kinase still bound, per cent of control (RPS6KA1 KD2 (human)): 0.3%; kinase still bound, per cent of control (PRKD2 (human)): 70%; kinase still bound, per cent of control (TESK1 (human)): 100%; kinase still bound, per cent of control (CDK18 (human)): 100%; kinase still bound, per cent of control (PKN2 (human)): 100%; kinase still bound, per cent of control (MAP3K15 (human)): 9.2%; kinase still bound, per cent of control (NEK1 (human)): 64%; kinase still bound, per cent of control (MKNK2 (human)): 29%; kinase still bound, per cent of control (AAK1 (human)): 11%
3 | CCc1nc(-c2cccc(C)c2)c(-c2ccnc(NC(=O)c3ccccc3)c2)s1 | 0 | 86 | 35 | 5.2 | 100 | 90 | 84 | 100 | 60 | 76 | 85 | 76% | 81 | 100 | 15 | 83 | 100 | 90 | 74 | 97 | kinase still bound, per cent of control (AURKB (human)): 100%; kinase still bound, per cent of control (EPHA5 (human)): 90%; kinase still bound, per cent of control (SBK1 (human)): 100%; kinase still bound, per cent of control (SRPK1 (human)): 100%; kinase still bound, per cent of control (MINK1 (human)): 8.4%; kinase still bound, per cent of control (MAP3K12 (human)): 100%; kinase still bound, per cent of control (MAPK11 (human)): 0%; kinase still bound, per cent of control (HCK (human)): 31%; kinase still bound, per cent of control [3]: 100%; kinase still bound, per cent of control (RPS6KA1 KD2 (human)): 28%; kinase still bound, per cent of control (PRKD2 (human)): 46%; kinase still bound, per cent of control (TESK1 (human)): 81%; kinase still bound, per cent of control (CDK18 (human)): 96%; kinase still bound, per cent of control (PKN2 (human)): 76%; kinase still bound, per cent of control (MAP3K15 (human)): 100%; kinase still bound, per cent of control (NEK1 (human)): 90%; kinase still bound, per cent of control (MKNK2 (human)): 94%; kinase still bound, per cent of control (AAK1 (human)): 96%
